# Reference: US20230391727A1, “ANALOGUES OF PENTAMIDINE AND METHODS FOR TREATING INFECTIONS” (Auransa Inc., priority 2020, published 2023)
# Tests used:
# [1] = system: S. aureus VRS-2; experiment: S. aureus VRS-2 peritonitis infection model; format: in vivo, female ICR mice
# Protocol: The efficacy of compound 3 was evaluated in the S. aureus VRS-2 peritonitis infection model. The test article, compound 3 at 0.1, 0.3 and 1 mg/kg, was intraperitoneally (IP) administered twice at 2 and 16 h after infection; as well as once at 2 mg/kg at 2 h post-infection. The control reference agent, linezolid at 50 mg/kg, was orally (PO) administered once at 1 h post-infection. […] All animals in the vehicle group succumbed to infection between Day 1 to Day 2, resulting in 100% mortality, and a mean 15 h survival time. […] In the compound 3 at 1 mg/kg IP BID dose group, one out of eight animals survived till Day 7 of the study period, resulting in 13% survival rate, and a mean 33 h survival time.
# For efficacy testing, the 0.4 mg/mL compound 3 solution was prepared by dissolving 1.21 mg of compound 3, corresponding to active ingredient of 1.02 mg with a correction factor of 1.19, in 2.55 mL of WFI. The 0.4 mg/mL compound 3 working solution was further diluted with WFI to generate three lower dosing solutions of 0.2, 0.06 and 0.02 mg/mL. All dosing solutions were soluble and colorless.
# PDS supplied vancomycin and linezolid as reference controls for both MIC and in vivo studies. […] The 3.2 mg/mL linezolid 50× stock solution was prepared by dissolving 1.0 mg of linezolid in 0.313 mL of DMSO. Both solutions were colorless and soluble. For efficacy testing, one tablet of linezolid, at 600 mg, was dissolved in 12 mL of 1% Tween 80 in saline (0.9% NaCl) to generate a 50 mg/mL of stock solution. The 50 mg/mL linezolid stock solution was further diluted with 1% Tween 80 in 0.9% NaCl to generate the dosing solution of 5 mg/mL. Both solutions were insoluble with white color.
# The S. aureus strain VRS-2 peritonitis infection model was performed with immunocompetent female ICR mice, weighing 22±2 g. All animals were specific pathogen free. The PDS standard protocol for preparing S. aureus cultures for mouse infection studies was followed. A 0.2 mL aliquot of a single-use glycerol stock (at −80° C.) was used to seed […] heart infusion (BHI) and then incubated at 35-37° C. with shaking (250 rpm) for 8 h. Bacterial cells in the 20 mL was pelleted by centrifugation (3,500×g) for 15 minutes, and then re-suspended in 10 mL cold phosphate buffer saline (PBS). The optical density, OD620 nm, was measured and used to guide dilution. The PBS suspensions were stored on ice for no more than 1 h prior to animal inoculation. The dilutions were performed by 1:1 dilution of BHI broth containing hog gastric mucin to obtain the target inoculum density, 1×10^8 CFU/mouse, per 0.5 mL with 5% mucin (final concentration). The actual colony count was determined by plating dilutions to nutrient agar (NA) plates followed by 20-24 h incubation at 35-37° C.
# On Day 0, animals were infected with bacterial suspension with 5% mucin by intraperitoneal injection. The actual inoculum was 1.93×10^8 CFU/mouse with a target inoculum of 1×10^8 CFU/mouse in the peritonitis infection model. Test article, compound 3, was formulated in WFI and intraperitoneally (IP) administered with the dose schedule and concentrations indicated in the study design. Doses were administered once at 2 h post-infection or twice (BID) at 2 and 16 h post-infection. The animals were monitored for survival up to 7 days, twice daily (AM 9:00/PM 17:00). […]
# Animals were monitored for mortality twice daily (AM 9:00/PM 17:00) for 7 days after infection. […]
# [2] = system: Staphylococcus aureus ATCC 19636; experiment: MIC assay against gram positive and antibiotic-resistant S. aureus; format: cell-based; settings: ATCC19636; Staphylococcus aureus ATCC 19636; read-out: MIC
# [3] = system: Staphylococcus aureus VRS-2 (VRSA); experiment: as above; format: cell-based; settings: Staphylococcus aureus VRS-2, VRSA; read-out: MIC
# [4] = system: NCI H69 cells; experiment: CellTiter-Glo cell viability assay (cytotoxicity), 8 days; format: cell-based; settings: Homo sapiens, 192 h, full growth media
# Protocol: The experiment tested pentamidine, Compounds 1-6 in full growth media for 8 days. NCI H69 cells were initially treated with the test compounds on Day 0, and the cells were then replenished with fresh compound dilutions on Day 3. Pentamidine and Compound 1 were tested at 9 concentration points: 100 μM, 33.33 μM, 11.11 μM, 3.70 μM, 1.23 μM, […], 0.05 μM, and 0.02 μM (final DMSO concentration=0.5%). The raw data values from the CellTiter-Glo™ cell viability assay expressed in relative luminescence units were normalized to the vehicle for each individual plate, and any reduction in luminescence indicated a decrease in viability (%). The data was analyzed in GraphPad PRISM using a non-linear sigmoidal plot with variable slope (asymmetric four-point […]), and an IC50 value for each compound was generated based on the normalized dose-response curves and shown in Table 1.
# [5] = system: K. pneumoniae; experiment: Checkerboard assay with rifampicin (FIG. 1); format: cell-based, Klebsiella pneumoniae
# Excerpt: As control, pentamidine was used for its synergistic, indifferent or antagonistic interaction with rifampicin in similar conditions. […] In FIG. 1, dark wells indicated growth inhibition of K. pneumoniae and corresponding antibacterial activities of these compounds.
structure (smiles),measurement,setting,value
"N=C(N)c1ccc(CC[C@H]2CCC[C@@H](CCc3ccc(C(=N)N)cc3)C2)cc1 [Compound 3, 4,4′-(2,2′-((1R,3S)-cyclohexane-1,3-diyl)bis(ethane-2,1-diyl))dibenzimidamide]",mean survival time,[1]; 1 mg/kg IP BID (2 and 16 h after infection),33 h
same,survival rate,"[1]; 1 mg/kg IP BID (2 and 16 h after infection), Day 7",13%
same,mortality,"[1]; 0.1 and 0.3 mg/kg IP BID, and single dose of 2 mg/kg",100%
same,MIC,[2],0.125 µg/mL
same,MIC,[3],0.25 µg/mL
same,IC50,[4],0.8 µM
same,"synergistic effect with rifampicin, growth inhibition, compared to pentamidine",[5],superior synergistic effects with rifampicin than pentamidine with rifampicin
